Assay results taken from article PMC8894159, “Paltusotine, a novel oral once-daily nonpeptide SST2 receptor agonist, suppresses GH and IGF-1 in healthy volunteers” (Pituitary, 2022).
pEC50: −log10 of the molar value.

Columns and labels:
[1] = system: GHRH-stimulated GH secretion; assay: GHRH challenge: suppression of GHRH-stimulated GH secretion, single-dose cohorts; format: in vivo, human
Description: To assess the ability of paltusotine to suppress GHRH-stimulated GH secretion, a GHRH challenge was performed in single-dose cohorts S1, S2, S3, S4, and S5 (oral solution) (Fig. 1). Recombinant human GHRH(1-44)-NH2 (somatorelin; Ferring Pharmaceuticals, Parsippany, NJ) 50 µg was administered intravenously 2 h after paltusotine (or placebo) on Day 1 and at approximately the same time on Day -1 (± 10 min). A blood sample for serum GH was collected at − 60 min, − 30 min, immediately before GHRH challenge, and at 15, 30, 45, 60, 90, and 120 min post-challenge. Serum GH was also assessed in the M1 cohort. Serum GH sample was collected on Day - 1, on Days 1 and 7 (pre-dose, 0.5, 1, 2, 3, 4, 6, 8, 10, 12 and 18 h post-dose), Days 2–6 (pre-dose and 12 h post-dose), and Days 8, 10 and 14 (at approximately the same time as dosing).
(§1) Serum was isolated, stored, and analyzed for IGF-1 and GH according to the instructions from the manufacturer (IGF-1 and human GH diagnostic assay, Siemens Immulite® 1000 systems).
(§2) The study endpoints were effects of paltusotine on GHRH-stimulated GH and IGF-1 (pharmacodynamics), pharmacokinetics (including formulation and food effects), safety, and tolerability. For the analysis of effects paltusotine on GHRH-stimulated GH and IGF-1, the pharmacodynamic population included all randomized participants in the 1.25 mg, 2.5 mg, 5 mg, 10 mg, and 20 mg (S1, S2, S3, S4A, and S5) single-dose cohorts who received any amount of study drug and had at least one post-baseline pharmacodynamic assessment. The percent change in serum GH area under the curve (AUC) from 0 to 2 h (AUC0-2) from baseline was compared using ANOVA between each dosing cohort and all participants who received placebo. The single-dose pharmacodynamic population included 39 participants from the S1, S2, S3, S4, and S5 cohorts (paltusotine n = 29; placebo n = 10). […] For multiple-dose cohorts, only participants who received all doses were included. A change in IGF-1 levels 12 h post last dose from baseline (average of 3–4 measurements) were compared by ANOVA between each dosing cohort and all participants who received placebo. The multiple-dose pharmacodynamic population included 31 participants from the M1, M2, M3, and M4 cohorts (paltusotine n = 21; placebo n = 10).

[2] = Safety and tolerability, multiple-dose cohorts; format: in vivo, human
Description: Safety assessments included monitoring of clinical laboratory tests, cardiovascular safety monitoring (continuous Holter monitoring, ECG, telemetry), and physical examinations conducted at scheduled times throughout the study in the research units as well as post-discharge (up to 9 days after the single-dose, or up to 11 days after the last dose for multiple-dose cohorts). Adverse events and concomitant medications were recorded. Laboratory samples for clinical chemistry, hematology, coagulation tests, and urinalysis were collected under fasted conditions. Participants who discontinued prematurely attended an early termination visit. In the multiple-dose cohorts, baseline serum TSH, ACTH, and prolactin samples were collected on Day -2, and an oral glucose tolerance test (OGTT) was conducted on Day -7 or earlier. These assessments were repeated on Day 8 (M1) or Day 11 (M2 and subsequent cohorts). A safety review committee oversaw the study and made decisions to escalate, expand or decrease the dose for the cohorts based on a review of demographics, pharmacokinetics, pharmacodynamics, and safety data in a blinded fashion. For the safety analysis, adverse events were coded using the Medical Dictionary for Regulatory Activities (MedDRA® Version 20.0). Adverse events were grouped by preferred terms. Treatment-emergent adverse events (TEAEs) were summarized with descriptive statistics.

[3] = system: stimulated-GH and IGF-1 secretion; parameters: method as in ref 13 = [13]; 13. Betz SF Markison S Kusnetzow AK Athanacio JD Rico-Bautista E Madan A Suppression of growth hormone and insulin-like growth factor 1 in rats after oral administration of CRN00808, a small molecule; conditions: cited from earlier work
serum IGF-1 = assay: Serum IGF-1 suppression in healthy volunteers; format: in vivo, human
Description: For assessment of serum IGF-1, in the single-dose cohorts, serum IGF-1 was collected on Day - 1 and Day 1 (pre-dose to 18 h post-dose), and Day 2 and 7 (at approximately the same time GHRH was administered on Day 1). In the M1 cohort, IGF-1 samples were obtained pre-dose, 6 and 12 h post-dose on Days - 1, 1 and 7; pre-dose and 12 h post-dose on Days 2–6; and at approximately the same time as dosing on Days 8, 10, and 14. For M2 and subsequent cohorts, IGF-1 samples were obtained pre-dose, 6 and 12 h post-dose on Days - 1, 1 and 10; pre-dose and 12 h post-dose on Days 2–9; and at approximately the same time as dosing on Days 11, 14, and 21.
as §1, §2

SST2 = system: SST2; parameters: method as in ref 13 = [13]; 13. Betz SF Markison S Kusnetzow AK Athanacio JD Rico-Bautista E Madan A Suppression of growth hormone and insulin-like growth factor 1 in rats after oral administration of CRN00808, a small molecule; conditions: cited from earlier work
[4] = plasma concentration-response model, 1.25-20 mg single doses
[5] = multiple-dosing, safety population N = 24
[6] = multiple-dosing, safety population N = 24, listed as Paltusotine
[7] = one subject, cohort M3 20 mg, discontinued after Day 5

Cl.N#Cc1cccc(-c2ccc3ncc(-c4cc(F)cc(F)c4)c(N4CCC(N)CC4)c3c2)c1O [paltusotine, 3-[4-(4-Aminopiperidin-1-yl)-3-(3,5-difluorophenyl)quinolin-6-yl]-2-hydroxybenzonitrile hydrochloride]
mean peak GH concentration after GHRH challenge ([1]; 10 mg single dose, Day 1, GHRH alone on Day -1 gave 21 ng/mL): 1.7 ng/mL | suppression of stimulated GH AUC0-2 h ([1]; 10 mg single dose, placebo 15%): 91% | EC50 ([1]; Homo sapiens, read-out: paltusotine concentration for 50% GH suppression (EC50), plasma concentration-response model, 1.25-20 mg single doses): ~7.9 ng/mL | paltusotine concentration for 50% GH suppression (EC50) [1, 4]: 7.9 ng/mL | paltusotine concentration for 80% GH suppression (EC80) [1, 4]: ~29 ng/mL | increase in glucose AUC0-3 upon 75 g oral glucose challenge compared to baseline ([2]; 30 mg multiple dose, 95% CI 1.8-4.6, placebo 1.5): 3.2 mmol·h/L | heart rate, ECG morphology, PR duration, QRS interval, QTcF interval ([2]; all cohorts): no clinically meaningful changes | fasting plasma glucose ([2]; multiple-dose cohorts): not significantly changed | share of TEAEs occurring at a dose level of 10 mg or higher ([2]; multiple-dose cohorts): 78% | Abdominal pain (TEAE) [2, 5]: 4 n (%) | Diarrhea (TEAE) [2, 5]: 4 n (%) | Headache (TEAE) [2, 5]: 3 n (%) | Hyperglycemia (TEAE) [2, 5]: 2 (8.3%) n (%) | Lipase/pancreatic enzymes increased (TEAE) [2, 5]: 2 (8.3%) n (%) | Participants with at least 1 TEAE [2, 5]: 17 (70.8%) n (%) | Upper respiratory tract infection (TEAE) [2, 5]: 2 (8.3%) n (%) | Ventricular tachycardia (non-sustained) (TEAE) [2, 5]: 2 (8.3%) n (%) | Abdominal pain (TEAE) [2, 6]: 4 (16.7%) n (%) | Diarrhea (TEAE) [2, 6]: 4 (16.7%) n (%) | Headache (TEAE) [2, 6]: 3 (12.5%) n (%) | amylase peak [2, 7]: 2 times the upper limit of normal | lipase peak [2, 7]: 3.9 times the upper limit of normal | lipase elevation ([2]; one subject, cohort M4 30 mg, 24 h after the tenth dose): 1.7 times the upper limit of normal | TSH, ACTH, or prolactin levels ([2]; repeated administration): no consistent trends of clinical relevance | tolerability ([2]; repeated daily capsules, 7 days (5 mg) and 10 days (10, 20, 30 mg)): well tolerated | stimulated-GH and IGF-1 secretion in rats [3]: suppresses stimulated-GH and IGF-1 secretion | IGF-1 suppression (serum IGF-1; 5 mg once daily, Day 7, relative to baseline): 19% | additional time IGF-1 remained suppressed after the final dose (serum IGF-1; 10 mg cohort, final dose on Day 10): 4 days | IGF-1 suppression (serum IGF-1; 10 mg once daily, Day 10, relative to baseline): 37% | IGF-1 suppression (serum IGF-1; 20 mg once daily, Day 10, relative to baseline): 37% | IGF-1 suppression (serum IGF-1; 30 mg once daily, Day 10, relative to baseline): 30% | maximal degree of IGF-1 suppression (serum IGF-1; multiple-dose cohorts): up to 37% | time to near-maximum IGF-1 suppression (serum IGF-1; once-daily dosing (10 mg cohort illustrated)): approximately 7 days | serum IGF-1 change after a single dose (serum IGF-1; single 1.25 to 20 mg dose, compared to Day -1 or placebo): little to no change | selectivity for SST2 over other somatostatin receptor subtypes (SST2): > 4000 fold | pEC50 (SST2; read-out: SST2 agonist EC50): 9.60
